{"source": "paper PMC6270814", "about": "“Effects of Ursolic Acid Derivatives on Caco-2 Cells and Their Alleviating Role in Streptozocin-Induced Type 2 Diabetic Rats” (Molecules, 2014)", "key": {"[1]": {"system": "STZ-induced diabetic rats", "test": "Serum biochemical parameters (insulin, total protein, albumin) in STZ-induced diabetic rats", "assay_type": "in vivo, rat", "conditions": "4 weeks, compounds 100 mg/kg, glibenclamide 10 mg/kg", "description": "(§1) Diabetes was induced by a single intraperitoneal injection of streptozotocin (Sigma-Aldrich, St. Louis, MO, USA) at a dose of 65 mg/kg body weight. STZ was dissolved in 0.1 M cold citrate buffer, pH 4.5. Control group were injected with citrate buffer alone. After 7 days for the development of diabetes, plasma glucose levels were determined of each rat. Rats with fasting blood glucose (FBG) range of above 16.7 mmol/L were considered as DM rats and were used for further study.\n(§2) According to the body weight and plasma glucose levels the rats were divided randomly into seven groups with six rats each and treated as follows: • Group I: Normal rats treated with 0.5% CMC-Na (2 mL/200 g body weight). • Group II: Diabetic rats treated with 0.5% CMC-Na. • Group III: Diabetic rats treated with 10 mg/kg of glibenclamide. • Group IV: Diabetic rats treated with 100 mg/kg of compound 1 (UA). • Group V: Diabetic rats treated with 100 mg/kg of compound 10. • Group VI: Diabetic rats treated with 100 mg/kg of compound 11. • Group VII: Diabetic rats treated with 100 mg/kg of compound 12.\n(§3) The treatment was continued daily for 28 days. Blood glucose levels and body weight were measured every week to ascertain the status of diabetes. After 4 weeks of treatment, the animals were fasted for 12 h and sacrificed by cervical dislocation under mild anaesthetization, blood was collected into heparinized tubes and centrifuged at 2,000 rpm for 10 min. Livers and kidneys were removed, washed and homogenized in ice-cold normal saline. This homogenates were centrifuged at 3,000 rpm for 10 min at 4 °C, and the supernatants were collected for the estimate of antioxidant markers.\n(§4) Fasting blood glucose levels were estimated on days 0, 7, 14, 28 with the single touch glucometer (Life Scan, Johnson & Johnson Company, New Brunswick, NJ, USA). Serum insulin level was measured by use of a commercial immunoassay kit by enzyme linked immunosorbent assay (Uscn. Life Science Inc., Wuhan, China). Serum total protein, albumin, triglycerides (TG), total cholesterol (TC), high-density lipoprotein cholesterol (HDL-C), and low-density lipoprotein cholesterol (LDL-C) were measured with an automatic biochemical analyzer (Sinnowa D240, Nanjing, China)."}, "[2]": {"system": "STZ-induced diabetic rats", "test": "Oxidative stress markers (GSH, SOD, MDA) in liver and kidney of STZ-induced diabetic rats", "assay_type": "in vivo, rat", "conditions": "4 weeks", "description": "as §1, §2, §3\nThe tissue homogenates of liver and kidney were used for the estimate of antioxidant markers. Glutathione (GSH) level was measured with 5, 5'-dithiobis-(2-nitrobenzoic acid) (DTNB) as described by Sedlak and Lindsay. Superoxide dismutase (SOD) activity was assessed according to the method of Sinha. Malondialdehyde (MDA) activity was estimated with the thiobarbituric acid method."}, "[3]": {"system": "STZ-induced diabetic rats", "test": "Fasting blood glucose in STZ-induced diabetic rats, 4 weeks treatment", "assay_type": "in vivo, rat", "conditions": "STZ diabetic rats", "description": "Adult male albino rats of Sprague-Dawley rats (180–220 g) were obtained from the Guangdong Medical Lab Animal Center, and maintained under standard laboratory conditions in a temperature (25–30 °C) and light-controlled (12-h light/dark cycle) room with 35%–60% humidity. The animals were acclimatized for 10 days before the experiments and provided with rodent chow and water ad libitum. The investigation was conducted in accordance with the Guide for the Care and Use of Laboratory Animals and approved by the institutional Animal Ethics Committee.\nas §1, §2, §3, §4"}, "Caco-2 cells": {"system": "Caco-2 cells", "test": "MTT cytotoxicity assay on Caco-2 cells", "assay_type": "cell-based, Human", "conditions": "Homo sapiens, 24 h, mean ± SD, n = 4, read-out: Inhibition Rate %", "description": "Human intestinal Caco-2 cells (ATCC, Rockville, MD, USA) were incubated at 37 °C in a humidified atmosphere of 5% CO2 in air. The cells were cultured in Dulbecco’s […] medium (DMEM) with 10% heat-inactivated fetal bovine serum, 1% non-essential amino acids, 1% L-glutamine, 1% penicillin/streptomycin (Gibco Life Technologies, Grand Island, NY, USA). The cells were sub-cultured at confluence by 0.05% trypsin-0.5 mM EDTA treatment before they were applied in the experiment.\nA MTT test was conducted to determine the possible toxicity of UA and its derivatives to Caco-2 cells. Briefly, cells were seeded at a density of 1 × 10^4 cells/mL in a 96-well plate and incubated for 24 h. The next day, cells were incubated with vehicle (0.1% DMSO) and compounds at 100, 50, 25, 12.5 μmol/L for 24 h, and then 5 g/L MTT solution (20 μL) was added for 4 h. Absorbance at 570 nm was measured using a Multimodel Plate Reader (Infinite 200, Tecan, Mannedorf, Switzerland)."}, "[4]": {"system": "STZ-induced diabetic rats", "test": "Body weight and daily food intake of STZ-induced diabetic rats", "assay_type": "in vivo, rat", "conditions": "compounds 100 mg/kg, glibenclamide 10 mg/kg, oral", "description": "as §1, §2, §3"}}}
{"smiles": "C[C@H]1[C@H](C)CC[C@]2(C(=O)O)CC[C@]3(C)C(=CC[C@@H]4[C@@]5(C)CC[C@H](O)C(C)(C)[C@@H]5CC[C@]43C)[C@H]12", "note": "[Compound 1, Ursolic acid]", "values": [{"measurement": "serum albumin level vs diabetic control", "setting": "[1]", "result": "no appreciable improvement"}, {"measurement": "serum insulin level vs diabetic control", "setting": "[1]", "result": "non-significant effect"}, {"measurement": "serum total protein level vs diabetic control", "setting": "[1]", "result": "no appreciable improvement"}, {"measurement": "GSH level in kidney", "setting": "[2]; kidney of STZ diabetic rats", "result": "great effect"}, {"measurement": "MDA level in the liver", "setting": "[2]; liver of STZ diabetic rats, daily administration", "result": "obviously down-regulated"}, {"measurement": "effect on lowering fasting blood glucose levels", "setting": "[3]; 100 mg/kg, 4 weeks", "result": "no significant effect"}, {"measurement": "Fasting Blood Glucose Level, Week 0", "setting": "[3]; Week 0 (before treatment), compounds 100 mg/kg, glibenclamide 10 mg/kg, n = 6", "result": "342.00 ± 19.08", "unit": "mg/dL"}, {"measurement": "Fasting Blood Glucose Level, Week 1", "setting": "[3]; Week 1, compounds 100 mg/kg, glibenclamide 10 mg/kg daily, n = 6", "result": "405.00 ± 17.46", "unit": "mg/dL"}, {"measurement": "Fasting Blood Glucose Level, Week 2", "setting": "[3]; Week 2, compounds 100 mg/kg, glibenclamide 10 mg/kg daily, n = 6", "result": "392.40 ± 13.32", "unit": "mg/dL"}, {"measurement": "Fasting Blood Glucose Level, Week 3", "setting": "[3]; Week 3, compounds 100 mg/kg, glibenclamide 10 mg/kg daily, n = 6", "result": "379.80 ± 19.44", "unit": "mg/dL"}, {"measurement": "Fasting Blood Glucose Level, Week 4", "setting": "[3]; Week 4, compounds 100 mg/kg, glibenclamide 10 mg/kg daily, n = 6", "result": "396.00 ± 16.92", "unit": "mg/dL"}, {"measurement": "inhibition at 100 µM", "setting": "Caco-2 cells", "result": "9.88 ± 6.51", "unit": "%"}, {"measurement": "daily food intake vs untreated diabetic rats", "setting": "[4]", "result": "no obvious decrease"}]}
{"smiles": "CC(=O)O[C@H]1CC[C@@]2(C)C(CC[C@]3(C)C2CC=C2C4[C@@H](C)[C@H](C)CC[C@]4(C(=O)Nc4ccc(Br)cc4)CC[C@]23C)C1(C)C", "note": "(stereo partly drawn) [Compound 5]", "values": [{"measurement": "inhibition at 100 µM", "setting": "Caco-2 cells", "result": "8.72 ± 1.18", "unit": "%"}]}
{"smiles": "CC(=O)O[C@H]1CC[C@@]2(C)C(CC[C@]3(C)C2CC=C2C4[C@@H](C)[C@H](C)CC[C@]4(C(=O)Nc4ccccc4Cl)CC[C@]23C)C1(C)C", "note": "(stereo partly drawn) [Compound 7]", "values": [{"measurement": "inhibition at 100 µM", "setting": "Caco-2 cells", "result": "8.14 ± 3.81", "unit": "%"}]}
{"smiles": "CC(=O)O[C@H]1CC[C@@]2(C)C(CC[C@]3(C)C2CC=C2C4[C@@H](C)[C@H](C)CC[C@]4(C(=O)Nc4ccc(Cl)cc4)CC[C@]23C)C1(C)C", "note": "(stereo partly drawn) [Compound 4]", "values": [{"measurement": "inhibition at 100 µM", "setting": "Caco-2 cells", "result": "8.53 ± 5.69", "unit": "%"}]}
{"smiles": "O=C(CCc1ccc(O)cc1)c1c(O)cc(O)cc1O", "note": "[Phloretin, reference compound]", "values": [{"measurement": "inhibition at 100 µM", "setting": "Caco-2 cells", "result": "4.7 ± 2.59", "unit": "%"}]}
{"smiles": "CC(=O)O[C@H]1CC[C@@]2(C)C(CC[C@]3(C)C2CC=C2C4[C@@H](C)[C@H](C)CC[C@]4(C(=O)Nc4ccccc4)CC[C@]23C)C1(C)C", "note": "(stereo partly drawn) [Compound 2]", "values": [{"measurement": "inhibition at 100 µM", "setting": "Caco-2 cells", "result": "5.02 ± 2.38", "unit": "%"}]}
